According to patent US10125121B2, “FYN kinase inhibitors” (ROTTAPHARM BIOTECH S.R.L., priority 2015, dated 2018):

Assays:
[1] = target: active FYN (human recombinant, 62.7 kDa) (Homo sapiens, UniProt P06241); experiment: In vitro kinase assay (Z′-LYTE FRET); type: biochemical; conditions: read-out: IC50(nM) FYN INHIBITION
Experimental: Assays to determine the kinase inhibitory activity of compounds were performed using an automatic liquid handling device (Microlab STAR Hamilton) and Z′-LYTE™ Kinase Assay Platform, a Fluorescence Resonance Energy Transfer (FRET)-based assay platform compatible with high-throughput screening (HTS) applications. The assay employs a fluorescence-based, coupled-enzyme format and utilizes the differential sensitivity of phosphorylated and non-phosphorylated peptides to proteolytic cleavage.
All reagents were diluted in reaction buffer and the kinase reaction was carried out in a total volume of 10 μl, for 60 minutes at 25° C. The 0% Phosphorylation (i.e. no ATP) and 100% Phosphorylation (i.e. synthetically phosphorylated peptide supplied) Assay Controls, included in each plate, allowed to calculate the percent phosphorylation achieved in the specific reaction well. The 0% Inhibition and 0% Phosphorylation (i.e. 100% Inhibition) Controls define the dynamic range in the screen. At the end of incubation, a secondary reaction (the Development Reaction) started by adding 5 μl of Development Reagent, containing a site-specific protease that recognizes and cleaves non-phosphorylated peptides, and was interrupted after 60 minutes with 5 μl/sample of Stop Reagent.
The compounds were tested in a range of concentrations 10^−6-10^−9 M.
Results are expressed as percentage of inhibition and the IC50 values were calculated by non-linear curve fitting using GraphPad™ Prism software.

[2] = test system: NF-kB activation in JB6 CI 41-5a (P+) cells; experiment: Gene reporter (GR) assay, NF-kB luciferase after TNFα stimulation; type: cell-based, murine; conditions: Mus musculus; 1 h pre-treatment, 2 ng/ml TNFα for 4 h; read-out: IC50(nM) GR Inhibition
From the text: To determine if the compounds of the invention were active also in a cellular model, a gene reporter assay was established in a cell line (JB6 CI 41-5a (P+)) know to activate Fyn kinase via an inflammatory stimuli (TNFα). GR assay measures the activation of the nuclear transcription factor NF-kB, situated down-stream the Fyn activation pathway. Products active in this analysis has to penetrate in the cell and inhibit the activation pathway of NF-kB.
The murine epithelial cell line JB6 CI 41-5a (P+) (ATCC® Cat. # CRL-2010) was stably transfected with the pGL4.32[luc2P/NFkB-RE/Hygro] vector (Promega). Clonal selection was achieved by limiting dilution in MEM (+Earle's BSS+1.5 g/l sodium bicarbonate+0.1 mM NEAA)+GlutaMAX™-I, +1 mM sodium pyruvate, +5% FBS+80 μg/ml Hygromycin B. The clones were tested for their response to TNFα stimulus. The obtained transfected cells (JB6(P+) NFkB-RE-luc2P T3-C10) contained a firefly luciferase gene (luc2P) under the control of minimal TATA promoter with multiple Nuclear Factor-kB response elements (NFkB-REs). These NFkB-REs are DNA binding sequences for the NF-kB transcription factor.
JB6(P+) NFkB-RE-luc2P T3-C10 cells were used for the analysis of NF-kB activity modulation, after TNFα stimulation, by Fyn-inhibitors (Hwang et al.; Biochem. Pharmacol. 2009, 77 (7):1213-22).
6000 cells/well were plated in a 96× well plate. After 24 h new medium without antibiotics was given. After further 24 h the cells were pre-treated with the different compounds for 1 h and then stimulated with 2 ng/ml TNFα for 4 h. In each experiments two positive standards were always used, and each tested condition was analyzed in quadruplicate.
The luciferase analysis was performed with ONE-Glo™+ToxLuciferase Reporter and Cell Viability Assay kit (Promega). This assay combined luciferase assay chemistry with a cell viability marker to better understand reporter gene expression in the context of cell health. The assay uses a two-step process. The first part of the assay was a non-lytic fluorescence assay (CellTiter-Fluor™ Cell Viability Assay) that measured the relative number of live cells in a culture population, as it measures a conserved and constitutive protease activity within live cells. The live-cell protease activity was restricted to intact viable cells and was measured using a fluorogenic, cell-permeant peptide substrate (glycyl-phenylalanyl-aminofluorocoumarin; GF-AFC). The generated fluorescent signal, proportional to the number of living cells, was measured with EnVision microplate reader (PerkinElmer) using an excitation wavelength of 400 nm and emission wavelength of 500 nm.
The second part of the assay uses the ONE-Glo™ Luciferase Assay System to quantify firefly luciferase reporter gene expression. The ONE-Glo™ Assay contained a fluoro-luciferin substrate, more tolerant to sample components than standard luciferase assay reagents. Luminescence was measured with EnVision microplate reader (PerkinElmer).
Compounds of Formula (I) were tested for their capacity to penetrate into the cell and inhibit the activation pathway of NF-kB.

Sequence of active FYN (human recombinant, 62.7 kDa) (P06241 whole entry): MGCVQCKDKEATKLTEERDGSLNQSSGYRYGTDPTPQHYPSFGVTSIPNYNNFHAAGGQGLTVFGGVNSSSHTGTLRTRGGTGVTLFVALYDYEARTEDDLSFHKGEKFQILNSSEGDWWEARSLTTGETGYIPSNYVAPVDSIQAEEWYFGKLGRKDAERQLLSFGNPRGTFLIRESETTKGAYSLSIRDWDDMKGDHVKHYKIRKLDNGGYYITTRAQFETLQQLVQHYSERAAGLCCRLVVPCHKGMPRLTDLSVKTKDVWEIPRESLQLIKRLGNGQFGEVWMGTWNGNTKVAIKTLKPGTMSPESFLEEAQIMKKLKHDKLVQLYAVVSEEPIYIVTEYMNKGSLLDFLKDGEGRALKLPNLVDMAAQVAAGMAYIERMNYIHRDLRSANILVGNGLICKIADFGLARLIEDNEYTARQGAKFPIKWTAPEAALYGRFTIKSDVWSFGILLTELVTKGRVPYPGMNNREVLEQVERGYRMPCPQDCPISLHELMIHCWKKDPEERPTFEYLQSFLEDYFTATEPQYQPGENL

| IC50 [1] | IC50 [2] | Structure (SMILES) |
| --- | --- | --- |
| 27 nM | 1340 nM | O=C(Nc1ccc(CN2CCN(c3nccc(Nc4cc(C5CC5)[nH]n4)n3)CC2)cc1)c1cccnc1C(F)(F)F [Compound 27, N-(4-((4-(4-((5-cyclopropyl-1H-pyrazol-3-yl)amino)pyrimidin-2-yl)piperazin-1-yl)methyl)phenyl)-2-(trifluoromethyl)-nicotinamide] |
| 42 nM | 854 nM | Cc1nc(C(=O)Nc2ccc(CN3CCN(c4nccc(Nc5cc(C6CC6)[nH]n5)n4)CC3)cc2)c(C(F)(F)F)o1 [Compound 21, N-(4-((4-(4-((5-cyclopropyl-1H-pyrazol-3-yl)amino)pyrimidin-2-yl)piperazin-1-yl)methyl)phenyl)-2-methyl-5-(trifluoromethyl)oxazole-4-carboxamide] |
| 17 nM | 1000 nM | O=C(Nc1ccc(CN2CCN(c3nccc(Nc4cc(C5CC5)[nH]n4)n3)CC2)cc1)c1ccncc1C(F)(F)F [Compound 32, N-(4-((4-(4-((5-cyclopropyl-1H-pyrazol-3-yl)amino)pyrimidin-2-yl)piperazin-1-yl)methyl)phenyl)-3-(trifluoromethyl)-isonicotinamide] |
| 30 nM | > 2000 nM | Cc1cc(CN2CCN(c3nccc(Nc4cc(C5CC5)[nH]n4)n3)CC2)ccc1NC(=O)c1ccccc1F [Compound 17, N-(4-((4-(4-((5-cyclopropyl-1H-pyrazol-3-yl)amino)pyrimidin-2-yl)piperazin-1-yl)methyl)-2-methylphenyl)-2-fluorobenzamide] |
| > 1000 nM |  | O=C(Nc1ccc(CN2CCN(c3nccc(Nc4nnc(C5CC5)o4)n3)CC2)cc1)c1ccccc1C(F)(F)F [Compound 44, N-(4-((4-(4-((5-cyclopropyl-1,3,4-oxadiazol-2-yl)amino)pyrimidin-2-yl)piperazin-1-yl)methyl)phenyl)-2-(trifluoromethyl)benzamide] |
| 150 nM |  | COc1ccccc1C(=O)Nc1ccc(CN2CCN(c3nccc(Nc4cc(C5CC5)[nH]n4)n3)CC2)cc1 [Compound 7, N-(4-((4-(4-((5-cyclopropyl-1H-pyrazol-3-yl)amino)pyrimidin-2-yl)piperazin-1-yl)methyl)phenyl)-2-methoxy-benzamide] |

Second part, the molecule before the results:

| Structure (SMILES) | IC50 [1] | IC50 [2] |
| --- | --- | --- |
| CCc1cc(CN2CCN(c3nc(C)cc(Nc4cc(C5CC5)[nH]n4)n3)CC2)ccc1NC(=O)c1ccccc1F [Compound 18, N-(4-((4-(4-((5-cyclopropyl-1H-pyrazol-3-yl)amino)-6-methylpyrimidin-2-yl)piperazin-1-yl)methyl)-2-ethylphenyl)-2-fluorobenzamide] | 94 nM | 1370 nM |
| O=C(Nc1ccc(CN2CCN(c3nccc(Nc4cc(C5CC5)[nH]n4)n3)CC2)cc1)c1c(F)cccc1C(F)(F)F [Compound 13, N-(4-((4-(4-((5-cyclopropyl-1H-pyrazol-3-yl)amino)pyrimidin-2-yl)piperazin-1-yl)methyl)phenyl)-2-fluoro-6-(trifluoromethyl)benzamide] | 23 nM | 493 nM |
| Cc1nocc1C(=O)Nc1ccc(CN2CCN(c3nccc(Nc4cc(C5CC5)[nH]n4)n3)CC2)cc1 [Compound 23, N-(4-((4-(4-((5-cyclopropyl-1H-pyrazol-3-yl)amino)pyrimidin-2-yl)piperazin-1-yl)methyl)phenyl)-3-methylisoxazole-4-carboxamide] | 103 nM | 1930 nM |
| O=C(Nc1ccc(CN2CCN(c3nccc(Nc4cc(C5CC5)[nH]n4)n3)CC2)cc1)c1nccnc1C(F)(F)F [Compound 36, N-(4-((4-(4-((5-cyclopropyl-1H-pyrazol-3-yl)amino)pyrimidin-2-yl)piperazin-1-yl)methyl)phenyl)-3-(trifluoromethyl)-pyrazine-2-carboxamide] | 8 nM | > 2000 nM |
| O=C(Nc1ccc(CN2CCN(c3nccc(Nc4cc(C5CC5)[nH]n4)n3)CC2)cc1)c1cccc(F)c1C(F)(F)F [Compound 12, N-(4-((4-(4-((5-cyclopropyl-1H-pyrazol-3-yl)amino)pyrimidin-2-yl)piperazin-1-yl)methyl)phenyl)-3-fluoro-2-(trifluoromethyl)benzamide] | 29 nM | 430 nM |
| O=C(Nc1ccc(CN2CCN(c3nccc(Nc4cc(C5CC5)[nH]n4)n3)CC2)cc1)c1ccc(F)cc1C(F)(F)F [Compound 14, N-(4-((4-(4-((5-cyclopropyl-1H-pyrazol-3-yl)amino)pyrimidin-2-yl)piperazin-1-yl)methyl)phenyl)-4-fluoro-2-(trifluoromethyl)benzamide] | 16 nM | 603 nM |
| O=C(Nc1ccc(CN2CCN(c3nccc(Nc4cc(C5CC5)[nH]n4)n3)CC2)cc1)c1cnccc1C(F)(F)F [Compound 29, N-(4-((4-(4-((5-cyclopropyl-1H-pyrazol-3-yl)amino)pyrimidin-2-yl)piperazin-1-yl)methyl)phenyl)-4-(trifluoromethyl)-nicotinamide] | 8 nM | 973 nM |
| Cc1ccccc1C(=O)Nc1ccc(CN2CCN(c3nccc(Nc4cc(C5CC5)[nH]n4)n3)CC2)cc1 [Compound 4, N-(4-((4-(4-((5-cyclopropyl-1H-pyrazol-3-yl)amino)pyrimidin-2-yl)piperazin-1-yl)methyl)phenyl)-2-methylbenzamide] | 17 nM | 788 nM |
| O=C(Nc1ccc(CN2CCN(c3nccc(Nc4cc(C5CC5)[nH]n4)n3)CC2)nc1)c1ccccc1C(F)(F)F [Compound 43, N-(6-((4-(4-((5-cyclopropyl-1H-pyrazol-3-yl)amino)pyrimidin-2-yl)piperazin-1-yl)methyl)pyridin-3-yl)-2-(trifluoromethyl)benzamide] | 27 nM | 1050 nM |
| O=C(Nc1cnc(CN2CCN(c3nccc(Nc4cc(C5CC5)[nH]n4)n3)CC2)cn1)c1ccccc1C(F)(F)F [Compound 41, N-(5-((4-(4-((5-cyclopropyl-1H-pyrazol-3-yl)amino)pyrimidin-2-yl)piperazin-1-yl)methyl)pyrazin-2-yl)-2-(trifluoromethyl)benzamide] | 4 nM | > 2000 nM |
| Cc1nc(C(=O)Nc2ccc(CN3CCN(c4nccc(Nc5cc(C6CC6)[nH]n5)n4)CC3)nc2)c(C(F)(F)F)o1 [Compound 22, N-(6-((4-(4-((5-cyclopropyl-1H-pyrazol-3-yl)amino)pyrimidin-2-yl)piperazin-1-yl)methyl)pyridin-3-yl)-2-methyl-5-(trifluoromethyl)oxazole-4-carboxamide] | 424 nM |  |
| O=C(Nc1ccc(C(F)(F)F)cc1)c1ccc(CN2CCN(c3nccc(Nc4cc(C5CC5)[nH]n4)n3)CC2)cc1 [Compound 39, 4-((4-(4-((5-cyclopropyl-1H-pyrazol-3-yl)amino)pyrimidin-2-yl)piperazin-1-yl)methyl)-N-(4-(trifluoromethyl)phenyl)-benzamide] | > 1000 nM |  |
| O=C(Nc1ccc(CN2CCN(c3nccc(Nc4cc(C5CC5)[nH]n4)n3)CC2)cc1)c1ccc(F)cc1F [Compound 11, N-(4-((4-(4-((5-cyclopropyl-1H-pyrazol-3-yl)amino)pyrimidin-2-yl)piperazin-1-yl)methyl)phenyl)-2,4-difluoro-Benzamide] | 16 nM |  |
